From the supplement of paper PMC10307832

Columns and labels:
Assay in all cases: relative viability (nuclei count vs DMSO), 5 days (fraction); higher = more cells survive
SK-LU-1 = system: SK-LU-1
Outline: (§1)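 Dosing by pin tool came one day after lung cancer cell lines were seeded in 1536-well plates, using either one drug or a fixed anchor-drug dose plus five library-drug doses (not always all listed) in √10 steps. After 5 days, nuclei were counted on 4× images. Relative viability is treated-well nuclei count divided by vehicle-well nuclei count, and values are medians of duplicate plates.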

LU99A = system: LU99A
Outline: as §1

NCI-H1975 = system: NCI-H1975
Outline: as §1

HCC-366 = system: HCC-366
Outline: as §1

NCI-H1944 = system: NCI-H1944
Outline: as §1

NCI-H1793 = system: NCI-H1793
Outline: as §1

COR-L 105 = system: COR-L 105
Outline: as §1

EPLC-272H = system: EPLC-272H
Outline: as §1

NCI-H1792 = system: NCI-H1792
Outline: as §1

UMC-11 = system: UMC-11
Outline: as §1

NCI-H1915 = system: NCI-H1915
Outline: as §1

HOP-62 = system: HOP-62
Outline: as §1

NCI-H358 = system: NCI-H358
Outline: as §1

NCI-H2085 = system: NCI-H2085
Outline: as §1

NCI-H2170 = system: NCI-H2170
Outline: as §1

HCC-78 = system: HCC-78
Outline: as §1

A-427 = system: A-427
Outline: as §1

NCI-H1755 = system: NCI-H1755
Outline: as §1

LCLC-97TM1 = system: LCLC-97TM1
Outline: as §1

LXF-289 = system: LXF-289
Outline: as §1

NCI-H460 = system: NCI-H460
Outline: as §1

LC-2-ad = system: LC-2-ad
Outline: as §1

Clc1ccc(Nc2nnc(Cc3ccncc3)c3ccccc23)cc1 [Vatalanib] + Cc1nc(NC(=O)N2CCC[C@H]2C(N)=O)sc1-c1ccnc(C(C)(C)C(F)(F)F)c1 [Alpelisib] (partner 2 µM)
relative viability (SK-LU-1; first compound 0.04 µM): 1.09 | relative viability (SK-LU-1; first compound 0.1265 µM): 0.983 | relative viability (SK-LU-1; first compound 0.4 µM): 1.31 | relative viability (SK-LU-1; first compound 1.265 µM): 1.02 | relative viability (SK-LU-1; first compound 4 µM): 1.04 | relative viability (LU99A; first compound 0.04 µM): 0.541 | relative viability (LU99A; first compound 0.1265 µM): 0.514 | relative viability (LU99A; first compound 0.4 µM): 0.531 | relative viability (LU99A; first compound 1.265 µM): 0.503 | relative viability (LU99A; first compound 4 µM): 0.575 | relative viability (NCI-H1975; first compound 0.04 µM): 0.618 | relative viability (NCI-H1975; first compound 0.1265 µM): 0.62 | relative viability (NCI-H1975; first compound 0.4 µM): 0.627 | relative viability (NCI-H1975; first compound 1.265 µM): 0.553 | relative viability (NCI-H1975; first compound 4 µM): 0.519 | relative viability (HCC-366; first compound 0.04 µM): 0.388 | relative viability (HCC-366; first compound 0.1265 µM): 0.346 | relative viability (HCC-366; first compound 0.4 µM): 0.461 | relative viability (HCC-366; first compound 1.265 µM): 0.33 | relative viability (HCC-366; first compound 4 µM): 0.396 | relative viability (NCI-H1944; first compound 0.04 µM): 0.888 | relative viability (NCI-H1944; first compound 0.1265 µM): 0.706 | relative viability (NCI-H1944; first compound 0.4 µM): 0.833 | relative viability (NCI-H1944; first compound 1.265 µM): 0.808 | relative viability (NCI-H1944; first compound 4 µM): 0.864 | relative viability (NCI-H1793; first compound 0.04 µM): 0.554 | relative viability (NCI-H1793; first compound 0.1265 µM): 0.659 | relative viability (NCI-H1793; first compound 0.4 µM): 0.569 | relative viability (NCI-H1793; first compound 1.265 µM): 0.635 | relative viability (NCI-H1793; first compound 4 µM): 0.647 | relative viability (COR-L 105; first compound 0.04 µM): 0.994 | relative viability (COR-L 105; first compound 0.1265 µM): 0.994 | relative viability (COR-L 105; first compound 0.4 µM): 1.15 | relative viability (COR-L 105; first compound 1.265 µM): 1.12 | relative viability (COR-L 105; first compound 4 µM): 1.04 | relative viability (EPLC-272H; first compound 0.04 µM): 0.824 | relative viability (EPLC-272H; first compound 0.1265 µM): 0.963 | relative viability (EPLC-272H; first compound 0.4 µM): 1.08 | relative viability (EPLC-272H; first compound 1.265 µM): 1.05 | relative viability (EPLC-272H; first compound 4 µM): 1.06 | relative viability (NCI-H1792; first compound 0.04 µM): 0.669 | relative viability (NCI-H1792; first compound 0.1265 µM): 0.741 | relative viability (NCI-H1792; first compound 0.4 µM): 0.639 | relative viability (NCI-H1792; first compound 1.265 µM): 0.677 | relative viability (NCI-H1792; first compound 4 µM): 0.73 | relative viability (UMC-11; first compound 0.04 µM): 0.913 | relative viability (UMC-11; first compound 0.1265 µM): 0.932 | relative viability (UMC-11; first compound 0.4 µM): 0.816 | relative viability (UMC-11; first compound 1.265 µM): 0.979 | relative viability (UMC-11; first compound 4 µM): 1.07 | relative viability (NCI-H1915; first compound 0.04 µM): 1.03 | relative viability (NCI-H1915; first compound 0.1265 µM): 1.05 | relative viability (NCI-H1915; first compound 0.4 µM): 1.06 | relative viability (NCI-H1915; first compound 1.265 µM): 1.04 | relative viability (NCI-H1915; first compound 4 µM): 1.1 | relative viability (HOP-62; first compound 0.04 µM): 0.981 | relative viability (HOP-62; first compound 0.4 µM): 1.07 | relative viability (HOP-62; first compound 1.265 µM): 1.12 | relative viability (HOP-62; first compound 4 µM): 0.855 | relative viability (NCI-H358; first compound 0.04 µM): 0.88 | relative viability (NCI-H358; first compound 0.1265 µM): 0.741 | relative viability (NCI-H358; first compound 0.4 µM): 1.09 | relative viability (NCI-H358; first compound 1.265 µM): 0.824 | relative viability (NCI-H358; first compound 4 µM): 0.876 | relative viability (NCI-H2085; first compound 0.04 µM): 0.923 | relative viability (NCI-H2085; first compound 0.1265 µM): 0.94 | relative viability (NCI-H2085; first compound 0.4 µM): 1.04 | relative viability (NCI-H2085; first compound 1.265 µM): 0.97 | relative viability (NCI-H2085; first compound 4 µM): 0.893 | relative viability (NCI-H2170; first compound 0.04 µM): 0.86 | relative viability (NCI-H2170; first compound 0.1265 µM): 0.777 | relative viability (NCI-H2170; first compound 0.4 µM): 0.861 | relative viability (NCI-H2170; first compound 1.265 µM): 0.81 | relative viability (NCI-H2170; first compound 4 µM): 0.811 | relative viability (HCC-78; first compound 0.04 µM): 0.255 | relative viability (HCC-78; first compound 0.1265 µM): 0.346 | relative viability (HCC-78; first compound 0.4 µM): 0.277 | relative viability (HCC-78; first compound 4 µM): 0.323 | relative viability (A-427; first compound 0.04 µM): 0.988 | relative viability (A-427; first compound 0.1265 µM): 1.06 | relative viability (A-427; first compound 0.4 µM): 1.13 | relative viability (A-427; first compound 1.265 µM): 1.11 | relative viability (A-427; first compound 4 µM): 1.08 | relative viability (NCI-H1755; first compound 0.04 µM): 0.946 | relative viability (NCI-H1755; first compound 0.1265 µM): 0.895 | relative viability (NCI-H1755; first compound 0.4 µM): 0.977 | relative viability (NCI-H1755; first compound 1.265 µM): 0.857 | relative viability (NCI-H1755; first compound 4 µM): 0.906 | relative viability (LCLC-97TM1; first compound 0.04 µM): 0.248 | relative viability (LCLC-97TM1; first compound 0.1265 µM): 0.2 | relative viability (LCLC-97TM1; first compound 0.4 µM): 0.262 | relative viability (LCLC-97TM1; first compound 1.265 µM): 0.178 | relative viability (LCLC-97TM1; first compound 4 µM): 0.353 | relative viability (LXF-289; first compound 0.04 µM): 1.08 | relative viability (LXF-289; first compound 0.1265 µM): 1.01 | relative viability (LXF-289; first compound 0.4 µM): 1.06 | relative viability (LXF-289; first compound 1.265 µM): 0.964 | relative viability (LXF-289; first compound 4 µM): 0.995 | relative viability (NCI-H460; first compound 0.04 µM): 0.512 | relative viability (NCI-H460; first compound 0.1265 µM): 0.392 | relative viability (NCI-H460; first compound 0.4 µM): 0.654 | relative viability (NCI-H460; first compound 1.265 µM): 0.467 | relative viability (NCI-H460; first compound 4 µM): 0.441 | relative viability (LC-2-ad; first compound 0.04 µM): 0.86 | relative viability (LC-2-ad; first compound 0.1265 µM): 0.847 | relative viability (LC-2-ad; first compound 0.4 µM): 0.988 | relative viability (LC-2-ad; first compound 1.265 µM): 0.825 | relative viability (LC-2-ad; first compound 4 µM): 0.867
